The source of these data is US9834579B2, “Crystalline forms of s-acetyl glutathione, their preparations and uses in pharmaceutical and nutraceutical formulations” (Gnosis S.p.A., priority 2013, dated 2017).

Each structure is given as a SMILES string.

The nature of data set [1]: accelerated stability test of solid forms at 50° C. for 6 months (European Pharmacopoeia). Type of data set: physicochemical. The settings on record: for GSH / GSSG / SAG / Unknown impurities (single) / Unknown impurities (total): % area. As to the method:
The stability of the various solid forms was tested as described in the European Pharmacopoeia (EP), by conducting accelerated stability tests at 50° C. for 6 months.

The nature of data set [2]: dissolution rate in water. Type of data set: physicochemical. As to conditions: comparison of solid forms.
Data set [3] can be described thus: powder density / apparent density. The format is physicochemical. As to conditions: for Apparent density: product of the example after drying.
Data set [4] in a line: flowability of the powders. The settings on record: comparison of crystalline forms. The format is physicochemical.
Data set [5] in a line: heat and mechanical stress, conversion of one polymorph to the other. The format is physicochemical. The settings on record: heat and mechanical stresses.
For data set [6] the following is noted: oral, seven healthy volunteers, doses of up to 3 g per dose; cited from earlier work.
Data set [7] has as its system human tumour cell lines. The settings on record: some human tumour cell lines in vitro; cited from earlier work.
Data set [8] relates to fibroblasts originating from individuals suffering from a genetic glutathione synthetase deficiency. The settings on record: addition to fibroblast cultures; cited from earlier work.
The conditions of data set [9]: compared with GSH; cited from earlier work.
For data set [10], the system named is cell levels of GSH impoverished by viral infections. As to conditions: cells impoverished by viral infections, compared with GSH; cited from earlier work.

On to `CC(=O)SC[C@H](NC(=O)CC[C@H](N)C(=O)O)C(=O)NCC(=O)O` [Amorphous, S-acetyl glutathione], for which, in data set [1] (0 months), the “SAG - assay value” is recorded as 96.5%, the GSH is on record as 1.0%, the GSSG is given as 2.5% and the SAG is 95.1%. Further, in [1] (0 months), the “Unknown impurities (single)” value was found to be 0.4% and the “Unknown impurities (total)” value is on record as 1.4%. In addition, in data set [1] (1.5 months), the “SAG - assay value” was determined as 94.9%, the GSH came to 1.6%, the GSSG is given as 2.5% and the SAG was 94.6%. For the same molecule, in data set [1] (1.5 months), the “Unknown impurities (single)” value came to 0.9% and the “Unknown impurities (total)” value amounted to 1.9%. In addition, in [1] (3 months), the “SAG - assay value” is recorded as 92.4%, the GSH is 2.4%, the GSSG worked out at 2.8% and the SAG turned out to be 91.3%. Further, in data set [1] (3 months), the “Unknown impurities (single)” value is recorded as 1.2% and the “Unknown impurities (total)” value turned out to be 2.3%. Also, in [1] (4.5 months), the “SAG - assay value” is recorded as 91.5%, the GSH is on record as 2.8%, the GSSG is reported as 2.9% and the SAG worked out at 90.4%. In addition, in [1] (4.5 months), the “Unknown impurities (single)” value amounted to 1.3% and the “Unknown impurities (total)” value is reported as 2.7%. For the same molecule, in data set [1] (6 months), the “SAG - assay value” was 89.9%, the GSH is reported as 2.5%, the GSSG turned out to be 3.9% and the SAG is recorded as 88.6%. In data set [1] (6 months), the “Unknown impurities (single)” value was found to be 1.5% and the “Unknown impurities (total)” value is reported as 3.5%. Also, the “stability of the solid form (comparison)” value in data set [1] (6 months, data of Table 3) is on record as “much less stable than the crystalline forms”. Besides, the dissolution rate entry in data set [2] (listed as amorphous form) was “dissolves more rapidly”.
Take `CC(=O)SC[C@H](NC(=O)CC[C@H](N)C(=O)O)C(=O)NCC(=O)O` [Example 3, S-acetyl glutathione]: the Apparent density in data set [3] stood at 0.35 g/mL.
In the case of `CC(=O)SC[C@H](NC(=O)CC[C@H](N)C(=O)O)C(=O)NCC(=O)O` [Form A, S-acetyl glutathione], the “flowability of the powder” value in data set [4] was “better flowability”. In data set [5], the “conversion of one polymorph to the other” value is listed as “not found”. Moreover, in data set [1] (0 months), the “SAG - assay value” was 98.6%, the GSH stood at 0.1%, the GSSG was determined as 2.2% and the SAG is on record as 96.3%. In data set [1] (0 months), the “Unknown impurities (single)” value worked out at 0.4% and the “Unknown impurities (total)” value was found to be 1.0%. Moreover, in data set [1] (1.5 months), the “SAG - assay value” is listed as 98.3%, the GSH is given as 0.1%, the GSSG amounted to 2.2% and the SAG is reported as 95.5%. Moreover, in [1] (1.5 months), the “Unknown impurities (single)” value is reported as 0.5% and the “Unknown impurities (total)” value is listed as 1.7%. In data set [1] (3 months), the “SAG - assay value” is 97.8%, the GSH came to 0.2%, the GSSG is 2.3% and the SAG came to 95.1%. In data set [1] (3 months), the “Unknown impurities (single)” value stood at 0.5% and the “Unknown impurities (total)” value is on record as 1.9%. In addition, in data set [1] (4.5 months), the “SAG - assay value” is given as 97.6%, the GSH is 0.2%, the GSSG is given as 2.4% and the SAG was found to be 94.7%. In addition, in data set [1] (4.5 months), the “Unknown impurities (single)” value was determined as 0.7% and the “Unknown impurities (total)” value was found to be 2.0%. In [1] (6 months), the “SAG - assay value” worked out at 97.4%, the GSH turned out to be 0.3%, the GSSG is given as 2.4% and the SAG came out at 94.4%. In addition, in data set [1] (6 months), the “Unknown impurities (single)” value was 0.9% and the “Unknown impurities (total)” value is listed as 2.0%. Moreover, the powder density in [3] is 0.2 to 0.25 g/mL. In addition, the Apparent density in data set [3] (listed as Example 1) lay within 0.15 to 0.25 g/mL.
In the case of `CC(=O)SC[C@H](NC(=O)CC[C@H](N)C(=O)O)C(=O)NCC(=O)O` [Form B, S-acetyl glutathione], the “conversion of one polymorph to the other” value in data set [5] was “not found”. Further, in [1] (0 months), the “SAG - assay value” is 99.3%, the GSH turned out to be 0.2%, the GSSG is given as 1.1% and the SAG worked out at 97.7%. Further, in [1] (0 months), the “Unknown impurities (single)” value came to 0.2% and the “Unknown impurities (total)” value was found to be 0.8%. Also, in data set [1] (1.5 months), the “SAG - assay value” is 99.1%, the GSH is 0.3%, the GSSG turned out to be 1.2% and the SAG is 97.1%. Further, in [1] (1.5 months), the “Unknown impurities (single)” value is given as 0.5% and the “Unknown impurities (total)” value was determined as 0.9%. For the same molecule, in [1] (3 months), the “SAG - assay value” stood at 98.7%, the GSH is 0.7%, the GSSG is listed as 0.8% and the SAG was 96.7%. Also, in [1] (3 months), the “Unknown impurities (single)” value turned out to be 0.7% and the “Unknown impurities (total)” value was 1.1%. In data set [1] (4.5 months), the “SAG - assay value” is given as 98.3%, the GSH is 0.9%, the GSSG worked out at 1.1% and the SAG stood at 96.0%. Also, in [1] (4.5 months), the “Unknown impurities (single)” value was 0.7% and the “Unknown impurities (total)” value was 1.3%. Besides, in data set [1] (6 months), the “SAG - assay value” was found to be 98.1%, the GSH amounted to 1.0%, the GSSG is 0.9% and the SAG is reported as 95.7%. In addition, in [1] (6 months), the “Unknown impurities (single)” value was determined as 0.8% and the “Unknown impurities (total)” value was 2.0%. In addition, the powder density in [3] was 0.4 g/mL. In addition, in data set [3] (listed as Example 2), the Apparent density fell in the range of 0.25 to 0.40 g/mL. For the same molecule, the dissolution rate entry in data set [2] is listed as “most rapid dissolution rate”.
Turning to `N[C@@H](CCC(=O)N[C@@H](CS)C(=O)NCC(=O)O)C(=O)O` [GSH, γ-L-glutamyl-L-cysteinylglycine], the “increase in the blood levels of glutathione, cysteine and glutamate” value in data set [6] is listed as “no significant increases”.
Take `CC(=O)SC[C@H](NC(=O)CC[C@H](N)C(=O)O)C(=O)NCC(=O)O` [SAG, S-acetyl glutathione]: the “induction of apoptosis (non-GSH-dependent activity)” value in data set [7] is listed as “induces apoptosis”. For the same molecule, the “replenishment of the intracellular level of GSH” value in data set [8] is reported as “able to replenish the intracellular level of GSH effectively”. In addition, the “stability in the plasma” value in data set [9] is reported as “more stable in the plasma”. In [10], the “replenishing the cell levels of GSH” value is “more effective than GSH”.
